Measured values from ChEMBL document CHEMBL1201862, “PubChem BioAssay data set” (2004).
The source made the active and inactive calls.

Experiments:
[1] = Shn3 3'UTR reporter inhibitors, dose response, cell-based, Clone20 osteoblasts, firefly luciferase, cherry-picked (AID 624132); type: functional;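 further: firefly luciferase luminescence from reporter carrying the Shn3 3'UTR in osteoblasts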
[2] = cytotoxicity in COV434 cells, dose response, cytotoxicity control for PAX8 inhibitor project, cell-based, plate reader, dry powder, SA7 (AID 743145); type: functional
[3] = tested on: HEK293; assay: cells; type: functional, cell-based; conditions: Homo sapiens
[4] = cytotoxicity in OV-90 ovarian cancer cells, dose response, PAX8 inhibitor project, cell-based, plate reader, dry powder, SA8 (AID 743149); type: functional
[5] = A2780 ovarian cancer cell cytotoxicity, dose response, cytotoxicity control, plate reader, dry powder samples (AID 743046); type: functional, cell-based
[6] = tested on: HEK293; assay: NOD1 signaling inhibitors, primary screen, cell-based, luminescence, uHTS (AID 1578); type: functional; conditions: Homo sapiens
[7] = cytotoxicity in COV362 ovarian cancer cells, dose response, cytotoxicity control for PAX8 inhibitor project, cell-based, plate reader, dry powder, SA12 (AID 743144); type: functional
[8] = tested on: CHO; assay: cytotoxicity in TLR9-MyD88 CHO cells, dose response, cytotoxicity control for TLR9-MyD88 binding inhibitor project, cell-based, luminescence (AID 588339); type: functional, hamster; conditions: Cricetulus griseus;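 further: CHO cells stably coexpressing TLR9 and MyD88 fusions from primary screen; compound exposure lasted 48 hours before viability readout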
[9] = NIH:OVCAR-3 ovarian cancer cell cytotoxicity, dose response, PAX8 inhibitor project, plate reader, dry powder samples (AID 743044); type: functional, cell-based
[10] = molecular target: T1, Protein RecA (Mycobacterium tuberculosis, UniProt P9WHJ3); assay: Fluorescence Cell-Free Homogeneous Dose Retest to Identify Inhibitors of RecA-Intein Splicing Activity. [Related pubchem assays (depositor defined):AID2097, AID2223, AID489010, AID492950]; type: functional
T1 sequence (P9WHJ3 whole entry): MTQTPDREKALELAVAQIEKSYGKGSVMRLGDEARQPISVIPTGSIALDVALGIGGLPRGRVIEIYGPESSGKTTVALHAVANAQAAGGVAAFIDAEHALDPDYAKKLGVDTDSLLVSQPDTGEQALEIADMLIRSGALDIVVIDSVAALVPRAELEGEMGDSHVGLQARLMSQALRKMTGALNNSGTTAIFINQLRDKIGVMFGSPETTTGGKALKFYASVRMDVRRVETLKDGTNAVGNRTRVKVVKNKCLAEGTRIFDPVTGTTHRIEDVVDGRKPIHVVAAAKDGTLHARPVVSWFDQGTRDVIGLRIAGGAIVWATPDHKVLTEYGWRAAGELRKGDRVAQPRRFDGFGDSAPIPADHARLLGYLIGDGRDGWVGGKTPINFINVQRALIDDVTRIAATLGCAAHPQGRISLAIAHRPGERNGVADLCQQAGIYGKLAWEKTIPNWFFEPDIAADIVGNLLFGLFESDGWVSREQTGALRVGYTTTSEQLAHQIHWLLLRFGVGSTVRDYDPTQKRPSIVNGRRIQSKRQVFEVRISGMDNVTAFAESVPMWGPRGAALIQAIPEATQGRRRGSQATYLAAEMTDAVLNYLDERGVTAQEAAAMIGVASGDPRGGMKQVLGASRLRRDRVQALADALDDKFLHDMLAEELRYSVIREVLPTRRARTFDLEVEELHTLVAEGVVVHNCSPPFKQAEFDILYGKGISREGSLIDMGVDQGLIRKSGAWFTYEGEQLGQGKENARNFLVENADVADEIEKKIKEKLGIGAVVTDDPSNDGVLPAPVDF

[11] = Luminescence Cell-Based Dose Response HTS to Identify Inhibitors of 5'UTR Stem-Loop Driven Prion Protein mRNA Translation in H4 Neuroglioblastoma Cells. [Related pubchem assays: 1827 (Project Summary), 1813 (Primary HTS)]; type: functional
[12] = tested on: HEK293; assay: cells; type: functional, cell-based; conditions: Homo sapiens; remark: listed apart in the source
[13] = inhibitors of firefly luciferase expression or activity, dose response, H4 neuroglioma cells, luminescence (AID 1990); type: functional, cell-based
[14] = molecular target: Nucleotide-binding oligomerization domain-containing protein 2 (Homo sapiens, UniProt Q9HC29); assay: NOD2 signaling inhibitors, cell-based, luminescence, uHTS, HEK293 (AID 1566); type: functional
[15] = cytotoxicity dependent on PAX8, dose response, cell-based, plate reader, dry powder (AID 743049); type: functional
[16] = inhibitors of SNCA 5'UTR-driven reporter translation, confirmation, H4 neuroglioma cells, luminescence (AID 1988); type: functional, cell-based
[17] = PAX5 activity inhibitors, dose response, selectivity assay for PAX8 inhibitor project, cell-based, plate reader, dry powder samples (AID 743047); type: functional;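 further: HEK293 cells carrying a Pax5 driven CD19 promoter luciferase reporter; potency of inhibitors that lower reporter luminescence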
[18] = molecular target: Beta Lactamase (Pseudomonas aeruginosa, UniProt Q932Y6); assay: beta-lactamase reporter inhibitor potency, dose response, artefact control for TLR9-MyD88 binding inhibitor project, BLA reporter cells, FRET fluorescence (AID 588341); type: cell-based;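 further: cell based assay in CHO-K1 cells stably expressing beta-lactamase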
[19] = cytotoxicity in OVCAR4 cells, dose response, cytotoxicity control for PAX8 inhibitor project, cell-based, plate reader, dry powder, SA11 (AID 743150); type: functional; conditions: OVCAR-4
[20] = tested on: HEK293; assay: NOD2 signaling inhibitors in MDP-stimulated cells, cell-based, uHTS, luminescence (AID 2001); type: functional; conditions: Homo sapiens
[21] = control 3'UTR Renilla luciferase suppression, dose response, counter-screen for Shn3 inhibitor project, cell-based, Clone20-Shn3RL, cherry-picked (AID 624133); type: functional
[22] = PAX2 cell-based inhibition, dose response, selectivity assay for PAX8 inhibitor project, plate reader, dry powder samples (AID 743048); type: functional;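 further: HEK293 cells carrying a WT1 promoter luciferase reporter driven by expressed Pax2; potency is for inhibition of Pax2 driven reporter signal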
[23] = HepG2 cell cytotoxicity, dose response, cytotoxicity control for Shn3 inhibitor project, CellTiter-Glo, cherry-picked (AID 624134); type: functional, cell-based
[24] = tested on: Escherichia coli; assay: microbe, parasite or virus in culture
[25] = molecular target: T2, Fatty acid synthase (Homo sapiens, UniProt P49327); assay: FAS thioesterase domain inhibitors, dose response, biochemical, endpoint fluorescence intensity, uHTS hits (AID 624327); type: functional;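 further: fluorescence from hydrolysis of an O-methyl fluorescein acyl ester substrate by the enzyme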
[26] = molecular target: Paired box protein Pax-8 (Homo sapiens, UniProt Q06710); assay: inhibitors of PAX8-driven TPO luciferase reporter, dose response, RMG-I cells, cherry-pick (AID 687027); type: functional, cell-based;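 further: luciferase reporter driven by Pax8 target thyroperoxidase promoter measured by SteadyGlo luminescence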
[27] = molecular target: T2, Fatty acid synthase; assay: FAS thioesterase domain inhibitors, dose response, biochemical, kinetic fluorescence intensity (AID 624326); type: functional;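 further: rate of fluorescence rise from hydrolysis of a fluorogenic O-methyl fluorescein ester substrate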
[28] = IGROV1 ovarian cancer cell cytotoxicity, dose response, PAX8 inhibitor project, plate reader, dry powder samples (AID 743043); type: functional, cell-based; conditions: IGROV-1
[29] = molecular target: Heat shock protein HSP 90-alpha (Homo sapiens, UniProt P07900); type: functional, organism-based
[30] = IOSE-T80 ovarian epithelial cell cytotoxicity, dose response, cytotoxicity control for PAX8 inhibitor project, plate reader, dry powder samples (AID 743045); type: functional, cell-based
[31] = molecular target: T3, Replicative DNA helicase DnaB (Mycobacterium tuberculosis, UniProt P9WMR3); assay: DnaB intein splicing inhibitors, dose response, biochemical, cell-free fluorescence (AID 449749); type: functional
T3 sequence (P9WMR3 whole entry): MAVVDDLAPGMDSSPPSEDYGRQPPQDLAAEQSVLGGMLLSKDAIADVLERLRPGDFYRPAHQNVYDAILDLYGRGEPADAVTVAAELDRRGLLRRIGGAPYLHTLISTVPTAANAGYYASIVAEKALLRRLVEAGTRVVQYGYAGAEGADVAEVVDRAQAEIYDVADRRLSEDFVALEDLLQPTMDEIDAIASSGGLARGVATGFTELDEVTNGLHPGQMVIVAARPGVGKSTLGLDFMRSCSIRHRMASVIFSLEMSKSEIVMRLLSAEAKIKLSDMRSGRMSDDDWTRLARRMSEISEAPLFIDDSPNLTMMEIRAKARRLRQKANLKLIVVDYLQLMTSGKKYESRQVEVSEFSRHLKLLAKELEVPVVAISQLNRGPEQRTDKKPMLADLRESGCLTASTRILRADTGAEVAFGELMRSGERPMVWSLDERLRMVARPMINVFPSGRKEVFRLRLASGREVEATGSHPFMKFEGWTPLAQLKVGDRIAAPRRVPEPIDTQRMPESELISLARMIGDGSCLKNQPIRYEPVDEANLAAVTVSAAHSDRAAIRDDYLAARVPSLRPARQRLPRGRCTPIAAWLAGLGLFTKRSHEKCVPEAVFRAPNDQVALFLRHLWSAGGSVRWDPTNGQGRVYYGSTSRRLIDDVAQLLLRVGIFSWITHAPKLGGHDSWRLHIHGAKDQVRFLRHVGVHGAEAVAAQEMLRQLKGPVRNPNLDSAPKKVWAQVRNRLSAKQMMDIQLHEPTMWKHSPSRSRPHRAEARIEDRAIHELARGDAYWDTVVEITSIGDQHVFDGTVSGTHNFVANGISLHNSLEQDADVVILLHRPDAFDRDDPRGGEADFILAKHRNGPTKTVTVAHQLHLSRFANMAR

[32] = molecular target: ATP-binding cassette sub-family B member 6 (Homo sapiens, UniProt Q9NP58); assay: ABCB6 transporter inhibitors, dose response, K562-ABCB6 cells, flow cytometry, cherry pick 1 (AID 623955); type: functional; conditions: read-out: EC50_MICROM
[33] = HEp-2 cell cytotoxicity, dose response, cytotoxicity control for RSV inhibitor project, HTS (AID 2410); type: functional; conditions: human respiratory syncytial virus
[34] = tested on: Streptococcus sp. 'group A'; assay: growth inhibition of control SK(-) GAS strain, dose response, counter-screen for streptokinase expression inhibitor project, luminescence, kanamycin, BacTiterGlo, confirmation (AID 1900); type: functional, organism-based
[35] = molecular target: T4, Endoribonuclease toxin MazF (Escherichia coli K-12, UniProt P0AE70); assay: MazF toxin RNase activators, dose response, biochemical, fluorescence, single-stranded RNA substrate, uHTS hits (AID 588481); type: functional
[36] = tested on: Streptococcus; assay: Group A Streptococcus viability loss, dose response, counter-screen for streptokinase expression inhibitor project, luminescence, BacTiterGlo (AID 1915); type: functional, organism-based;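 further: potency for reduction of bacterial viability or growth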
[37] = molecular target: T5, Streptokinase A (Streptococcus pyogenes serotype M1, UniProt P10520); assay: S. pyogenes streptokinase expression inhibitors, potency, dose response, plasminogen activation absorbance, OD405 (AID 1914); type: functional, Streptococcus pyogenes M1 GAS;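 further: secreted streptokinase activity via plasminogen activation per viability signal from cell pellet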
T5 sequence (P10520 whole entry): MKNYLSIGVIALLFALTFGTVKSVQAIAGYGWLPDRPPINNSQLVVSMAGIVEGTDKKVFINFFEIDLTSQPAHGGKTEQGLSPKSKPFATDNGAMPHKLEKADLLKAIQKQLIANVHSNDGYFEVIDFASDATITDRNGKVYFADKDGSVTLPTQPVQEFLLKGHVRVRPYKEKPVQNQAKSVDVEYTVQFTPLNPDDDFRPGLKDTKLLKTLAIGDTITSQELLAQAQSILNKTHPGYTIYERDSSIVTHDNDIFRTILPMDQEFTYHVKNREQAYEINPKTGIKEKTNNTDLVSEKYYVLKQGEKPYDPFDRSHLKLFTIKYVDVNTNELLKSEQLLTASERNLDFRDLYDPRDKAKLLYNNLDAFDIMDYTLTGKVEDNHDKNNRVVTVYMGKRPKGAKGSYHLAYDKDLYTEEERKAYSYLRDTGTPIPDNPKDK

[38] = molecular target: T4, Endoribonuclease toxin MazF; assay: fluorescent RNA oligo signal without MazF, dose response, counter-screen for MazEF activator project, biochemical, fluorescence, single-stranded RNase substrate (AID 588502); type: functional
[39] = Luminescence Cell-Based Dose Retest to Confirm Inhibitors of Cancer Stem Cells. [Related pubchem assays (depositor defined):AID2717, AID2721]; type: functional; conditions: Homo sapiens
[40] = molecular target: Neurotensin receptor type 1 (Homo sapiens, UniProt P30989); type: functional;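 further: Image-based confirmatory dose-response assay measuring agonist activity at NTR1; NTR1-expressing U2OS osteosarcoma cells imaged for beta-arrestin GFP spot formation; agonist potency where compounds increase beta-arrestin recruitment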
[41] = tested on: INS1; assay: protection from cytokine-driven beta-cell apoptosis, dose response, JC-1 fluorescence, INS-1E, dry powder, set 2 (AID 488867); type: functional, cell-based; conditions: Rattus norvegicus
[42] = inhibitors of cytokine-induced nitrite release, dose response, cell-based, Griess absorbance, INS-1E, dry powder, set 3 (AID 488870); type: functional; conditions: Rattus norvegicus

T2 sequence (P49327 whole entry, the tested form may be a part): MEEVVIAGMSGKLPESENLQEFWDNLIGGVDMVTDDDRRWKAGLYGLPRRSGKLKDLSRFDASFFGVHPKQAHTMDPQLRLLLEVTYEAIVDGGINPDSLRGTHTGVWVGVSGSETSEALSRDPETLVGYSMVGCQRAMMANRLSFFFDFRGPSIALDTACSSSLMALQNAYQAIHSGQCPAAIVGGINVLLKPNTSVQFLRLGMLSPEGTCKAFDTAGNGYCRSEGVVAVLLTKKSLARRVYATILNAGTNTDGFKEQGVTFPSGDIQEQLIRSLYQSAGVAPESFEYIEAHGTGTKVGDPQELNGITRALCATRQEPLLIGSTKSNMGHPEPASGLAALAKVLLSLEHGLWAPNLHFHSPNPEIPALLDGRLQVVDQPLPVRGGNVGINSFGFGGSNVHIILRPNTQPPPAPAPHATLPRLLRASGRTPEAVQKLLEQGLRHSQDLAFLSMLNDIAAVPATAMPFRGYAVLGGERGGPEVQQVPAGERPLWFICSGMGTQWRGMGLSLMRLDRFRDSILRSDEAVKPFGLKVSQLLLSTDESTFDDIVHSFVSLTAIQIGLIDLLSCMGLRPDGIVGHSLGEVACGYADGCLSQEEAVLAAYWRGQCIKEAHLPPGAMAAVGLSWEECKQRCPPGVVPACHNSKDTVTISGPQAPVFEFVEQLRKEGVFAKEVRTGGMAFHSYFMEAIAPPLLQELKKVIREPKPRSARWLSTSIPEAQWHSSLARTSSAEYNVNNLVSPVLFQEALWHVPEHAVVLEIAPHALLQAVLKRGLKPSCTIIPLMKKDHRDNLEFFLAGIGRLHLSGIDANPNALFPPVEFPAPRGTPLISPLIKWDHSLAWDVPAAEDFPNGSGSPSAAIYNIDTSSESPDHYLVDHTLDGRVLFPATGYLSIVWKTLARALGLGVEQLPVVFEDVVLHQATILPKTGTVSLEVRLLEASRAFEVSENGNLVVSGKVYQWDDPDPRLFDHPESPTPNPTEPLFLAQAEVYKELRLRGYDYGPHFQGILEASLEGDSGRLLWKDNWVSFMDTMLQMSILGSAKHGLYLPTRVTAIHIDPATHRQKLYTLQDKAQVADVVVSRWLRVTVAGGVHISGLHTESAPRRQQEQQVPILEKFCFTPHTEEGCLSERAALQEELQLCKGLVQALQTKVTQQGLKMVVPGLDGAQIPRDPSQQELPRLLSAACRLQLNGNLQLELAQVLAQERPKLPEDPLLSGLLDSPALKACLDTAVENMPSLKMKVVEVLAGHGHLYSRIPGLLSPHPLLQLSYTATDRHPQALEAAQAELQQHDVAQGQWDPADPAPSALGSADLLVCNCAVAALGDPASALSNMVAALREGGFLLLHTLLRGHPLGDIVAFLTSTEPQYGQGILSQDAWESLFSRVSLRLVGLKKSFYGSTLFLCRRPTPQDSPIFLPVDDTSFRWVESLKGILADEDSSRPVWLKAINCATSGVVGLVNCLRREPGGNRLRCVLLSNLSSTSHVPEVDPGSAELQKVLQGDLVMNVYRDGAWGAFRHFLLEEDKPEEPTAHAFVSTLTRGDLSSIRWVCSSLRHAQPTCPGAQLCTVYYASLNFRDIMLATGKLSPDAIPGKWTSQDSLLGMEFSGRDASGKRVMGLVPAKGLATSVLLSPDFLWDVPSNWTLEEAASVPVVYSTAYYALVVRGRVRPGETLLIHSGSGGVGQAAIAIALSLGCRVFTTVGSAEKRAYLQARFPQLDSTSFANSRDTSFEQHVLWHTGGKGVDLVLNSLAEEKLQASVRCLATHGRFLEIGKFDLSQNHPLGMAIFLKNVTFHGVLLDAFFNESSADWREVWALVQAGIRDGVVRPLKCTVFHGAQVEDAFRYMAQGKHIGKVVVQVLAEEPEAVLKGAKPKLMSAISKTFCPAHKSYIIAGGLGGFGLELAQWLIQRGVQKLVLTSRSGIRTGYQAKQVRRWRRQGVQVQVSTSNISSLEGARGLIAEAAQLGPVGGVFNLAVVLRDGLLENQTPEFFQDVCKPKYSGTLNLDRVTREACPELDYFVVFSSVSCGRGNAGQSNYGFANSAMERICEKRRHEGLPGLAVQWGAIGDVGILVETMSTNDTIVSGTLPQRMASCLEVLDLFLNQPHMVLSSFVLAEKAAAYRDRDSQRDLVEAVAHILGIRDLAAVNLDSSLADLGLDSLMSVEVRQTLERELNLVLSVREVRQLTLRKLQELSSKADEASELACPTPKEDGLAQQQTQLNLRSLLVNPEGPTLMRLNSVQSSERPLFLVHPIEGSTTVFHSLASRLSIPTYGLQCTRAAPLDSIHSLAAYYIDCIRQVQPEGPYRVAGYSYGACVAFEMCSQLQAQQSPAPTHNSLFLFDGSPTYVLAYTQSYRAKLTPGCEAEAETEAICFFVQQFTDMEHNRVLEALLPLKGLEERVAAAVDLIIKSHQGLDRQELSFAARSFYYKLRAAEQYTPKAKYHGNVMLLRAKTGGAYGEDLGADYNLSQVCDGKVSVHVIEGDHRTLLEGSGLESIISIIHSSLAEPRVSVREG
T4 sequence (P0AE70 whole entry): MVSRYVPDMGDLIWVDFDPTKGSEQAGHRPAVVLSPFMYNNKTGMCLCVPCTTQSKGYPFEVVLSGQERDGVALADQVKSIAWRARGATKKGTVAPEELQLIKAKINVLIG
Sequence of Nucleotide-binding oligomerization domain-containing protein 2 (Q9HC29 whole entry, the tested form may be a part): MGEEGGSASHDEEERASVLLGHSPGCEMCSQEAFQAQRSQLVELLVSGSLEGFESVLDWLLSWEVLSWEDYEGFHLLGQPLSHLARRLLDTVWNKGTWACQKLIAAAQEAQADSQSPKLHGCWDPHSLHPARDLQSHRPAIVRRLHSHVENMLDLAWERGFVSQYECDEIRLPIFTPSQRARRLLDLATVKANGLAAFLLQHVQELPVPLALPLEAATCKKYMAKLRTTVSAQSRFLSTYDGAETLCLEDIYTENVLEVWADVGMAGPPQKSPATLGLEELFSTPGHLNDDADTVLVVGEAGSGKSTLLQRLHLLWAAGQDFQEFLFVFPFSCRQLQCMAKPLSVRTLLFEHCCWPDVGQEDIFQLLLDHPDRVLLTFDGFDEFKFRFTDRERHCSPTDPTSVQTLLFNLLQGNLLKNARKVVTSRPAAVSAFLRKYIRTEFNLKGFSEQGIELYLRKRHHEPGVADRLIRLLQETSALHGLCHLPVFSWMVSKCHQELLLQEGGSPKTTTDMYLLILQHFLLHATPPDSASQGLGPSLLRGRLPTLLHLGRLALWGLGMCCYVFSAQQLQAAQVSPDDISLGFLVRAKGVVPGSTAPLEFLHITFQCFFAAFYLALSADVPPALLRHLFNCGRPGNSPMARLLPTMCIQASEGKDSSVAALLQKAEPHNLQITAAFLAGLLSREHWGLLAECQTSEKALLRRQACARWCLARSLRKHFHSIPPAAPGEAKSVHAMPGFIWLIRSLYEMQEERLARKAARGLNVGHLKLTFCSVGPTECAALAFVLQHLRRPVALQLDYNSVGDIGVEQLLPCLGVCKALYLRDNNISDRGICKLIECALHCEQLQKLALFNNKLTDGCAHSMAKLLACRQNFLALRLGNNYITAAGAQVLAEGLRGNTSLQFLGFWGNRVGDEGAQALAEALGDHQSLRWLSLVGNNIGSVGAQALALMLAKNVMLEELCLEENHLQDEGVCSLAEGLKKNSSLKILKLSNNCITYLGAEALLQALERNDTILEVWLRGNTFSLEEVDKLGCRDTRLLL
Sequence of Neurotensin receptor type 1 (P30989 whole entry): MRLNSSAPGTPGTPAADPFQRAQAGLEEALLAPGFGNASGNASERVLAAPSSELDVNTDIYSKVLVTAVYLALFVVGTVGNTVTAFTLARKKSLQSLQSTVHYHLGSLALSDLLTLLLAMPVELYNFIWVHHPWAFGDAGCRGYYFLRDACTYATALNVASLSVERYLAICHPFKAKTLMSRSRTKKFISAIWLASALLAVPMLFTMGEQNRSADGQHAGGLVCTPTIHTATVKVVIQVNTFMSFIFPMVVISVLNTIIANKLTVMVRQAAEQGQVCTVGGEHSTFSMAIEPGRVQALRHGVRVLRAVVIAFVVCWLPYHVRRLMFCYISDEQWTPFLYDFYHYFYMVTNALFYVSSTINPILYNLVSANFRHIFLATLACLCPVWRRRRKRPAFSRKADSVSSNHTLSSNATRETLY
Sequence of Beta Lactamase (Q932Y6 whole entry): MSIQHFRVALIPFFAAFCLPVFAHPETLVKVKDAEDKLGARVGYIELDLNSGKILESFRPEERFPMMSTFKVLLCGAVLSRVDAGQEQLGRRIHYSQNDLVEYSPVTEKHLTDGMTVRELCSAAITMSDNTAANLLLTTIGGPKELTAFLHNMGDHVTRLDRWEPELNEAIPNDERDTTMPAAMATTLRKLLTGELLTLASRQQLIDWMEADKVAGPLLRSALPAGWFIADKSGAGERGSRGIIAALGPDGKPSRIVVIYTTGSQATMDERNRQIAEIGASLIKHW
Sequence of Paired box protein Pax-8 (Q06710 whole entry, the tested form may be a part): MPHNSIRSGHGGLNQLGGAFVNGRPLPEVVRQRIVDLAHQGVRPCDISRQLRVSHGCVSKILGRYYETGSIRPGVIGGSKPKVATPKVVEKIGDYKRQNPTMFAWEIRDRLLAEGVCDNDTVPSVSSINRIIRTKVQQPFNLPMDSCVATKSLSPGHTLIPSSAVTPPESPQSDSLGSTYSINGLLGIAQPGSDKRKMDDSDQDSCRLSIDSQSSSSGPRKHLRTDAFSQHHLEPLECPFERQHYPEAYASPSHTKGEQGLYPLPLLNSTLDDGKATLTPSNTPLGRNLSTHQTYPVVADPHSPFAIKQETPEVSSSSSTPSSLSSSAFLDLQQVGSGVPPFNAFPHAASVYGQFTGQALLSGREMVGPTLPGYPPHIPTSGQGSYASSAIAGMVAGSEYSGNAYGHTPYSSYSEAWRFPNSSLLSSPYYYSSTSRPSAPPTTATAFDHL

Cc1cccc(CS(=O)(=O)c2ncc(Cl)c(C(=O)Nc3ccc(F)cc3)n2)c1
AC50 [1]: 0.55 µM (active)
AC50 [2]: 4.11 µM (active)
IC50 [3]: > 20 µM (inactive)
AC50 [4]: 8.4 µM (active)
AC50 [5]: 23.8 µM (active)
EC50 [6]: 8.42 µM (active)
AC50 [7]: 7.95 µM (active)
IC50 [8]: 2.72 µM (active)
AC50 [9]: 7.88 µM (active)
EC50 [10]: 2.19 µM (active)
EC50 [11]: 22 µM (active)
IC50 [12]: > 20 µM (inactive)
EC50 [13]: 12.2 µM (active)
EC50 [14]: > 20 µM (inactive)
AC50 [15]: 12.7 µM (active)
EC50 [16]: 12.4 µM (active)
AC50 [17]: 31.4 µM (active)
IC50 [18]: 9.48 µM (active)
AC50 [19]: 10.5 µM (active)
IC50 [20]: 10.8 µM (inactive)
AC50 [21]: 6.54 µM (active)
AC50 [22]: 14.8 µM (active)
AC50 [23]: 29.2 µM (active)
AC50 [24]: 25.5 µM (active)
IC50 [25]: 9.64 µM (active)
AC50 [26]: 9.28 µM (active)
IC50 [27]: 19.4 µM (active)
AC50 [28]: 9.96 µM (active)
AC50 [29]: 1.73 µM (active)
AC50 [30]: 10.5 µM (active)
AC50 [31]: 3.25 µM (active)
EC50 [32]: 80.4 µM (active)

O=[N+]([O-])c1ccc(-c2nc(Nc3cccc(O)c3)c3ccccc3n2)cc1
CC50 [33]: 22 µM (active)
EC50 [34]: 11.4 µM (active)
EC50 [35]: > 99 µM (inactive)
EC50 [36]: 8.36 µM (active)
EC50 [37]: > 150 µM (not active)
EC50 [38]: > 99 µM (inactive)
AC50 [39]: 3.24 µM (active)
IC50 [25]: 12.9 µM (active)
EC50 [40]: 15.3 µM (active)
IC50 [27]: 13.2 µM (active)

C[C@@H]1CN([C@@H](C)CO)C(=O)c2cccc(NC(=O)Nc3cccc4ccccc34)c2O[C@H]1CN(C)S(=O)(=O)c1ccc2c(c1)OCCCO2
AC50 [41]: 253 µM (active)
AC50 [42]: 32.2 µM (active)
